According to patent US11485736B2 (KSQ Therapeutics, Inc., priority 2018, dated 2022):

target: USP1/UAF1 (Homo sapiens (Human), UniProt O94782); test: Deubiquitination assay for USP1/UAF1 activity (ubiquitin-rhodamine 110); format: biochemical; settings: Table 2; 0.05 nM USP1/UAF1, 150 nM ubiquitin-rhodamine
Procedure: Certain Compounds of the Disclosure were assessed for USP1/UAF1 activity in a Ubiquitin Rhodamine assay modified from those described previously.
Deubiquitinase activity was measured using ubiquitin-rhodamine 110 as a substrate. Cleavage of the amide bond between rhodamine and the c-terminal glycine of ubiquitin yields an increase in fluorescence signal. The assay was conducted in 20 ul total volume of assay buffer (50 mM Tris-HCl, pH 7.8, 0.5 mM EDTA, 0.01% Bovine Serum Albumin, 1 mM DTT, 0.01% Tween-20), and 0.05 nM USP1/UAF1 enzyme.
Compounds, dissolved in DMSO were tested in dose response format, beginning at 10 uM.
Compounds depicted below were added to enzyme/assay buffer mix and incubated 10 min.
Data for all assay formats was calculated as percent inhibition compared with control wells. […] IC50 values were calculated using the standard four parameter curve fitting algorithm in either Prism GraphPad (La Jolla, Calif.) software, or Collaborative Drug Discovery (Burlingame, Calif.) CDD Vault.

USP1/UAF1, sequence (O94782 whole entry): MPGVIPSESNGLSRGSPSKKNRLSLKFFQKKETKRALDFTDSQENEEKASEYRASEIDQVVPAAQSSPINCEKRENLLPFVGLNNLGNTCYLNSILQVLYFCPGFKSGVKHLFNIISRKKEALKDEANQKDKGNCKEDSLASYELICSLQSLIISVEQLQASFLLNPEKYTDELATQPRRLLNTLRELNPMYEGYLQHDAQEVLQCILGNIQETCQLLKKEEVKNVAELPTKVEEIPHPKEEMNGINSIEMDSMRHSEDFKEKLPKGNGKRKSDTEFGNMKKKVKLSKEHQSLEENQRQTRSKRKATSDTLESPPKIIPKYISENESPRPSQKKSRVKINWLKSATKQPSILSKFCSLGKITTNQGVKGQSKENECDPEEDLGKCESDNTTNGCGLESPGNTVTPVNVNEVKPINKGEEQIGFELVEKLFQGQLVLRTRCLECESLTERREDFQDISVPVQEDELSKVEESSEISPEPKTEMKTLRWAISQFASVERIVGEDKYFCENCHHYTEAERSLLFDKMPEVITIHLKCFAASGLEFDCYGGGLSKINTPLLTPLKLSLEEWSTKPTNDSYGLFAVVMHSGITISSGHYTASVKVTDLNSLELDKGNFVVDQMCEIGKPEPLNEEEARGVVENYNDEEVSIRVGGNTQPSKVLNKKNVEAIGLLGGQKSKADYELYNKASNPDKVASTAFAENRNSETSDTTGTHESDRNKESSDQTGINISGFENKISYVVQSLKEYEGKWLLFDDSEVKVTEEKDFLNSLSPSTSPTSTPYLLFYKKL
USP1/UAF1, sequence (Q8TAF3 whole entry partner): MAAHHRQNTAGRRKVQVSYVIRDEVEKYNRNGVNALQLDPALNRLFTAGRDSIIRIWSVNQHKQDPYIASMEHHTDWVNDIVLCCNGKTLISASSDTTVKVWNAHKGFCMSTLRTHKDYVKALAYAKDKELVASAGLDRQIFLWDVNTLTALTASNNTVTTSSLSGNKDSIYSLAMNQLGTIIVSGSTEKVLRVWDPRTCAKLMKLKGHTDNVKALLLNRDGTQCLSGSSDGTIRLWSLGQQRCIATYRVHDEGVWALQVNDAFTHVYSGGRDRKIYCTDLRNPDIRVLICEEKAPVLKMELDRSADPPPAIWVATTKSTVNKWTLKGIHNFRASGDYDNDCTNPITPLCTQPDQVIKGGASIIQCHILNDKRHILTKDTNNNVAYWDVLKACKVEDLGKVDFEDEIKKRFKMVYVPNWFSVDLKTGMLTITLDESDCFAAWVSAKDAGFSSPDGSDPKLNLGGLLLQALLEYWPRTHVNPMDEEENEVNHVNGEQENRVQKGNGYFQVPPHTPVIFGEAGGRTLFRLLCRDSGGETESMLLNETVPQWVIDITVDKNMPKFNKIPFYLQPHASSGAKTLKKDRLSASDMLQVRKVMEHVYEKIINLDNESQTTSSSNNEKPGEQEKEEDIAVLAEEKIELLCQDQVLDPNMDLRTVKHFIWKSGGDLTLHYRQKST

| IC50 | SMILES |
| --- | --- |
| < 10 nM | Cc1nn(Cc2ccc(-c3nc(C(F)(F)F)cn3C)cc2)c2nc(-c3ccccc3C(C)C)ncc12 [drawing 729] |
| < 10 nM | CC(C)c1ccccc1-c1ncc2cnn(Cc3ccc(-c4nc(C(F)(F)F)cn4C)cc3)c2n1 [drawing 730] |

same assay, conditions: Table 3; 0.05 nM USP1/UAF1, 150 nM ubiquitin-rhodamine

| SMILES | IC50 |
| --- | --- |
| COc1ncnc(C2CC2)c1-c1ncc2cnn(Cc3ccc(-c4nc(C(F)(F)F)c[nH]4)cc3)c2n1 [drawing 765] | 10 to 100 nM |
| COc1ncnc(OC)c1-c1ncc2cnn(Cc3ccc(-c4nc(C(F)(F)F)cn4C)cc3)c2n1 [drawing 766] | 10 to 100 nM |
| CCn1cc(C(F)(F)F)nc1-c1ccc(Cn2ncc3cnc(-c4c(OC)ncnc4C4CC4)nc32)cn1 [drawing 767] | 10 to 100 nM |
| COc1ncnc(C2CC2)c1-c1ncc2cnn(Cc3ccc(-n4nc(C(F)(F)F)cc4OC)nc3)c2n1 [drawing 768] | 10 to 100 nM |
| COc1ncnc(C2(C)CC2)c1-c1ncc2cnn(Cc3ccc(-c4nc(C(F)(F)F)cn4C)cc3)c2n1 [drawing 769] | 10 to 100 nM |
| COc1ncnc(C2CC2)c1-c1ncc2cnn(Cc3ccc(-c4nc(C(F)(F)F)cn4C4COC4)cc3)c2n1 [drawing 770] | 10 to 100 nM |
| CCn1cc(C(F)(F)F)nc1-c1ccc(Cn2ncc3cnc(-c4c(C5CC5)cnn4CC)nc32)cc1 [drawing 771] | 10 to 100 nM |
| COc1ncnc(C(C)(C)F)c1-c1ncc2cnn(Cc3ccc(-c4nc(C(F)(F)F)cn4C)cc3)c2n1 [drawing 772] | 10 to 100 nM |
| COc1ncnc(C2CC2)c1-c1ncc2cnn(Cc3ccc(-c4nc(C(F)(F)F)c5n4CCNC5)cc3)c2n1 [drawing 773] | 10 to 100 nM |
| COc1ncnc(C2CC2)c1-c1ncc2cnn(Cc3ccc(-c4nc(C(F)(F)F)cn4C4CN(C)C4)cc3)c2n1 [drawing 775] | 10 to 100 nM |
| Cc1ncnc(C(C)C)c1-c1ncc2cnn(Cc3ccc(-n4nc(C(F)(F)F)cc4C)cc3)c2n1 [drawing 776] | 10 to 100 nM |
| COc1ncnc(C2CC2)c1-c1ncc2cnn(Cc3ccc(-c4nc(C(F)(F)F)n(C)n4)cc3)c2n1 [drawing 778] | 10 to 100 nM |
| CSc1ncnc(C)c1-c1ncc2cnn(Cc3ccc(-n4nc(C(F)(F)F)cc4C)cc3)c2n1 [drawing 779] | 10 to 100 nM |
| COCCOc1ncnc(C2CC2)c1-c1ncc2cnn(Cc3ccc(-n4nc(C(F)(F)F)cc4C)cc3)c2n1 [drawing 781] | 100 to 200 nM |
| COc1ncnc(C)c1-c1ncc2cnn(Cc3ccc(-n4nc(C(F)(F)F)cc4C)cc3)c2n1 [drawing 784] | 100 to 200 nM |
| COCCOc1ncnc(C2CC2)c1-c1ncc2cnn(Cc3ccc(-c4nc(C(F)(F)F)cn4C)cc3)c2n1 [drawing 787] | > 200 nM |
| COCCOc1ncnc(C)c1-c1ncc2cnn(Cc3ccc(-n4nc(C(F)(F)F)cc4C)cc3)c2n1 [drawing 789] | > 200 nM |
| COc1nc(C)c(-c2ncc3cnn(Cc4ccc(-c5nc(C(F)(F)F)cn5C)cc4)c3n2)c(OC)n1 [drawing 793] | > 200 nM |
| Cc1cc(C(F)(F)F)nn1-c1ccc(Cn2ncc3cnc(-c4cccnc4C#N)nc32)cc1 [drawing 797] | > 200 nM |

More lines, now with the values ahead:

| IC50 | SMILES |
| --- | --- |
| < 10 nM | CCn1cc(C(F)(F)F)nc1-c1ccc(Cn2ncc3cnc(-c4c(OC(F)F)ncnc4C4CC4)nc32)cc1 [drawing 731] |
| < 10 nM | COc1ncnc(C2CC2)c1-c1ncc2cnn(Cc3ccc(-c4nc(C(F)(F)F)cn4C4CCC4)cc3)c2n1 [drawing 732] |
| < 10 nM | CCOc1ncnc(OCC)c1-c1ncc2cnn(Cc3ccc(-c4nc(C(F)(F)F)cn4CC)cc3)c2n1 [drawing 733] |
| < 10 nM | Cc1cnn(C(C)C)c1-c1ncc2cnn(Cc3ccc(-n4nc(C(F)(F)F)cc4C)cc3)c2n1 [drawing 734] |
| < 10 nM | CCOc1cc(C(F)(F)F)nn1-c1ccc(Cn2ncc3cnc(-c4c(OC)ncnc4C4CC4)nc32)cc1 [drawing 735] |
| 10 to 100 nM | COc1ncnc(C2CC2)c1-c1ncc2cnn(Cc3ccc(-c4cn(C)c(C(F)(F)F)n4)cc3)c2n1 [drawing 736] |
| 10 to 100 nM | COc1ncnc(C2CC2)c1-c1ncc2cnn(Cc3ccc(-n4nc(C(F)(F)F)cc4OC)cc3)c2n1 [drawing 737] |
| 10 to 100 nM | CCn1cc(C(F)(F)F)nc1-c1ccc(Cn2ncc3cnc(-c4c(OC)ncnc4C4CC4)nc32)cc1 [drawing 738] |
| 10 to 100 nM | COc1ncnc(C2CC2)c1-c1ncc2cnn(Cc3ccc(-c4nc(C(F)(F)F)cn4C4CC4)cc3)c2n1 [drawing 739] |
| 10 to 100 nM | CCn1cc(C(F)(F)F)nc1-c1ccc(Cn2ncc3cnc(-c4c(OC(C)(C)C)ncnc4C4CC4)nc32)cc1 [drawing 740] |
| 10 to 100 nM | CCn1cc(C(F)(F)F)nc1-c1ccc(Cn2ncc3cnc(-c4c(OCCF)ncnc4C4CC4)nc32)cc1 [drawing 741] |
| 10 to 100 nM | [2H]C([2H])([2H])Oc1ncnc(C2CC2)c1-c1ncc2cnn(Cc3ccc(-c4nc(C(F)(F)F)cn4CC)cc3)c2n1 [drawing 744] |
| 10 to 100 nM | COc1ncnc(C2CC2)c1-c1ncc2cnn(Cc3ccc(-c4nc(C(F)(F)F)cn4C)c(F)c3)c2n1 [drawing 746] |
| 10 to 100 nM | COc1ncnc(C2CCC2)c1-c1ncc2cnn(Cc3ccc(-c4nc(C(F)(F)F)cn4C)cc3)c2n1 [drawing 749] |
| 10 to 100 nM | CCn1cc(C(F)(F)F)nc1-c1ccc(Cn2ncc3cnc(-c4c(OC5CC5)ncnc4C4CC4)nc32)cc1 [drawing 750] |
| 10 to 100 nM | CCn1cc(C(F)(F)F)nc1-c1ccc(Cn2ncc3cnc(-c4c(OC5CCC5)ncnc4C4CC4)nc32)cc1 [drawing 752] |
| 10 to 100 nM | CCn1cc(C(F)(F)F)nc1-c1ccc(Cn2ncc3cnc(-c4c(OC)ncnc4OC)nc32)cc1 [drawing 755] |
| 10 to 100 nM | CC(C)Oc1ncnc(C2CC2)c1-c1ncc2cnn(Cc3ccc(-c4nc(C(F)(F)F)cn4C)cc3)c2n1 [drawing 756] |
| 10 to 100 nM | COc1ncnc(C(C)(C)C)c1-c1ncc2cnn(Cc3ccc(-c4nc(C(F)(F)F)cn4C)cc3)c2n1 [drawing 757] |
| 10 to 100 nM | COc1ncnc(C2CC2)c1-c1ncc2cnn(Cc3ccc(-c4nc(C(F)(F)F)cn4C)cc3F)c2n1 [drawing 758] |
| 10 to 100 nM | COc1nc(C)nc(C2CC2)c1-c1ncc2cnn(Cc3ccc(-c4nc(C(F)(F)F)cn4C)cc3)c2n1 [drawing 760] |
| 10 to 100 nM | CCn1cc(C(F)(F)F)nc1-c1ccc(Cn2ncc3cnc(-c4c(OC)cnn4C4CC4)nc32)cc1 [drawing 761] |
| 10 to 100 nM | COc1ncnc(C2CC2)c1-c1ncc2cnn(Cc3ccc(-n4nc(C(F)F)cc4C)cc3)c2n1 [drawing 762] |
| 10 to 100 nM | CCOc1ncnc(C2CC2)c1-c1ncc2cnn(Cc3ccc(-c4nc(C(F)(F)F)cn4C)cc3)c2n1 [drawing 763] |
| 10 to 100 nM | COc1ncnc(C2CC2)c1-c1ncc2cnn(Cc3ccc(-c4nc(C(F)(F)F)cn4CCF)cc3)c2n1 [drawing 764] |

same assay, conditions: Table 4; 0.05 nM USP1/UAF1, 150 nM ubiquitin-rhodamine

| IC50 | SMILES |
| --- | --- |
| 10 to 100 nM | CCn1cc(C(F)(F)F)nc1-c1ccc(Cn2nc(SC)c3cnc(-c4c(OC)ncnc4C4CC4)nc32)cc1 [drawing 800] |
| 10 to 100 nM | CCn1cc(C(F)(F)F)nc1-c1ccc(Cn2nc(SCc3ccc(OC)cc3)c3cnc(-c4c(OC)ncnc4C4CC4)nc32)cc1 [drawing 801] |
| 10 to 100 nM | COc1ncnc(C2CC2)c1-c1ncc2c(OC)nn([C@@H](C)c3ccc(-c4nc(C(F)(F)F)c(Br)n4C)cc3)c2n1 [drawing 802] |
| 10 to 100 nM | COCc1nc2cnc(-c3c(OC)ncnc3C3CC3)nc2n1Cc1ccc(-c2nc(C(F)(F)F)cn2C(C)C)cc1 [drawing 804] |
| 10 to 100 nM | COc1ncnc(C2CC2)c1-c1ncc2nc(C(C)C)n(Cc3ccc(-c4nc(C(F)(F)F)cn4C(C)C)cc3)c2n1 [drawing 805] |
